# Laboratory results from US12134620B2 (ARAXES PHARMA LLC, priority 2018, dated 2024).
# Biological target: T1, KRAS G12C 1-169, his-tagged protein, GDP-loaded (Homo sapiens, UniProt P01116, G12C)
# T1 construct: KRAS G12C 1-169, his-tagged protein, GDP-loaded; His tag
# Assay: Biochemical assay: covalent modification of KRAS G12C, analysed by mass spectrometry (RapidFire/TOF or Q-Exactive); also: time not given here
# Format: binding
# Conditions: Modification activity, modification percentage from MS peak intensities
# Procedure, shortened: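 GDP-loaded His-tagged KRAS G12C 1-169 (2 μM or 0.5 μM in 20 mM Hepes, 150 mM NaCl, 1 mM MgCl2) reacted with compound at 32 μM or 8 μM final (2% DMSO) for a set time, then quenched with formic acid. Percent covalent modification from deconvoluted intact-protein MS peak intensities (RapidFire/TOF or LC-Q Exactive).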
row,SMILES,Binding %
1,"C=CC(=O)N1CC2(CCN(c3nc(OCc4ccnnc4)nc(-c4c(C)ccc5[nH]ncc45)c3C#N)C2)C1 [Compound I-173, 4-(2-acryloyl-2,6-diazaspiro[3.4]octan-6-yl)-6-(5-methyl-1H-indazol-4-yl)-2-(pyridazin-4-ylmethoxy)pyrimidine-5-carbonitrile]",++ (++ indicates binding activity from 50 to 85%)
2,"C=CC(=O)N1CC2(CCN(c3nc(OCc4cc(C(F)(F)F)ccn4)nc(-c4c(C)ccc5[nH]ncc45)c3C#N)C2)C1 [Compound I-174, 4-(2-acryloyl-2,6-diazaspiro[3.4]octan-6-yl)-6-(5-methyl-1H-indazol-4-yl)-2-((4-(trifluoromethyl)pyri-din-2-yl)methoxy)pyrimidine-5-carbonitrile]",++ (++ indicates binding activity from 50 to 85%)
3,"C=CC(=O)N1CC2(CCN(c3c(OCc4ccccn4)ncc(-c4c(C)ccc5cnn(C)c45)c3C#N)C2)C1 [Compound I-175, 3-(2-acryloyl-2,6-diazaspiro[3.4]octan-6-yl)-5-(1,6-dimethyl-1H-indazol-7-yl)-2-(pyridin-2-ylmethoxy)isonicoti-nonitrile]",++ (++ indicates binding activity from 50 to 85%)
4,"C=CC(=O)N1CC2(CC(=O)N(c3nc(N4CCOCC4)nc(-c4c(C)ccc5cn[nH]c45)c3C#N)C2)C1 [Compound I-176, 4-(2-acryloyl-7-oxo-2,6-diazaspiro[3.4]octan-6-yl)-6-(6-methyl-1H-indazol-7-yl)-2-morpholinopyrimidine-5-carbonitrile]",+ (+ indicates binding activity greater than 0% and up to 50%)
5,"C=CC(=O)N1CC2(CC(=O)N(c3nc(N4CCOCC4)nc(-c4c(O)cccc4F)c3C#N)C2)C1 [Compound I-177, 4-(2-acryloyl-7-oxo-2,6-diazaspiro[3.4]octan-6-yl)-6-(2-fluoro-6-hydroxyphenyl)-2-morpholinopyrimidine-5-carbonitrile]",+ (+ indicates binding activity greater than 0% and up to 50%)
6,"C=CC(=O)N1CC2(CCN(c3nc(=O)n(Cc4ccccc4)c(-c4c(C)ccc5[nH]ncc45)c3C#N)C2)C1 [Compound I-178, 4-(2-acryloyl-2,6-diazaspiro[3.4]octan-6-yl)-1-benzyl-6-(5-methyl-1H-indazol-4-yl)-2-oxo-1,2-dihydropyrimidine-5-carbonitrile]",+ (+ indicates binding activity greater than 0% and up to 50%)
7,"C=CC(=O)N1CC2(CCN(c3c(C#N)c(-c4c(C)ccc5[nH]ncc45)[nH]c(=O)[n+]3Cc3ccccc3)C2)C1 [Compound I-179, 6-(2-acryloyl-2,6-diazaspiro[3.4]octan-6-yl)-1-benzyl-4-(5-methyl-1H-indazol-4-yl)-2-oxo-2H-1l4,3l2-pyrimidine-5-carbonitrile]",+ (+ indicates binding activity greater than 0% and up to 50%)
8,"C=CC(=O)N1CC2(CCN(c3nc(C4CCN(C)CC4)nc(-c4c(C)ccc5[nH]ncc45)c3C#N)C2)C1 [Compound I-180, 4-(2-acryloyl-2,6-diazaspiro[3.4]octan-6-yl)-6-(5-methyl-1H-indazol-4-yl)-2-(1-methylpiperidin-4-yl)pyrimidine-5-carbonitrile]",++ (++ indicates binding activity from 50 to 85%)
9,"C=CC(=O)N1CC2(CCN(c3nc(OCc4ccc(N5CCN(C)CC5)cn4)nc(-c4c(C)ccc5[nH]ncc45)c3C#N)C2)C1 [Compound I-181, 4-(2-acryloyl-2,6-diazaspiro[3.4]octan-6-yl)-6-(5-methyl-1H-indazol-4-yl)-2-((5-(4-methylpiperazin-1-yl)pyridin-2-yl)methoxy)pyrimidine-5-carbonitrile]",++ (++ indicates binding activity from 50 to 85%)
10,"C=CC(=O)N1CC2(CCN(c3c(OC[C@@H]4CCCN4C)ncc(-c4c(C)ccc5cnn(C)c45)c3C#N)C2)C1 [Compound I-182, 3-(2-acryloyl-2,6-diazaspiro[3.4]octan-6-yl)-5-(1,6-dimethyl-1H-indazol-7-yl)-2-(((S)-1-methylpyrrolidin-2-yl)methoxy)isonicoti-nonitrile]",+ (+ indicates binding activity greater than 0% and up to 50%)
